Experiment: xn = mol fraction of the nth substance listed
Conditions: 101.3 kPa

CCCC[n+]1ccn(C)c1.F[B-](F)(F)F + NCCNCCN
x1 = 1
Conditions | viscosity [mPa·s]
313.15 K | 51.4
318.15 K | 42.1
323.15 K | 34.8
333.15 K | 24.7

NCCNCCN + CCCC[n+]1ccn(C)c1.F[B-](F)(F)F
viscosity [mPa·s]
Conditions | 298.15 K | 303.15 K | 308.15 K | 313.15 K | 318.15 K | 323.15 K | 328.15 K | 333.15 K
x2 = 0 | – | 4.5 | 3.86 | 3.4 | 3.05 | 2.7 | 2.45 | 2.032
x2 = 0.051 | 6.71 | 5.56 | 4.85 | 4.31 | – | 3.55 | 3.2 | 2.67
x2 = 0.1986 | 12.1 | 10.27 | 8.94 | – | 7.06 | 6.33 | 5.68 | –
x2 = 0.2998 | 17.35 | – | – | 10.9 | 9.7 | – | – | –
x2 = 0.3995 | – | 19.78 | 16.7 | – | 12.77 | – | – | 8.72
x2 = 0.4992 | 31.5 | – | 22.15 | – | 16.63 | 14.65 | – | –
x2 = 0.5905 | – | – | 28.1 | 24.07 | 20.88 | – | 15.53 | 13.88
x2 = 0.6974 | 52.6 | – | 36.3 | – | 26.6 | 23.13 | – | –
x2 = 0.8012 | 67.1 | 56.4 | 46 | 38.8 | 33.2 | 28.5 | 23.39 | 21.3
x2 = 0.8948 | 82.6 | – | 55.7 | 46.5 | 39.2 | 33.3 | 26.7 | 24.18
x2 = 0.9496 | 91.9 | 76.4 | 60.4 | 49.8 | 42 | – | 27.2 | –
